According to article PMC9428149, “Tackling recalcitrant Pseudomonas aeruginosa infections in critical illness via anti-virulence monotherapy” (Nature Communications, 2022):

Assays:
[1] = tested on: pqsA promoter (PA14 PpqsA-GFPASV); assay: pqsA-GFP reporter expression; type: cell-based, Pseudomonas aeruginosa; settings: PA14 PpqsA-GFPASV; 50µM per b210 (method b76 says 10 µM)
Method: The expression levels of pqsA, which is representative of the pqsABCDE operon transcription, were monitored in the presence of the MvfR inhibitors using PA14 cells containing the PpqsA-GFPASV, a reporter construct of the pqsA promoter fused to a short half-life GFP gene in, such that quantitative quenching of fluorescence corresponds to pqsA promoter repression[22],[32],[48]. […] GFP fluorescence levels were measured at λex = 485 nm/λem = 535 nm after 10 seconds of shaking every 15 min up to 12 h. The IC50 of PpqsA-GFP expression levels was performed as above using the same 13 different concentrations (0.0122–50 μM) for each of the 13 compounds tested.

[2] = tested on: MvfR-regulated small molecules in PA14; assay: Production of HAQs, 2-AA, DHQ and AA in PA14 cultures (LC-MS); settings: PA14, 50µM inhibitor; for % Production AA: anthranilic acid, precursor control
[3] = tested on: pyocyanin production in PA14; assay: Pyocyanin production assay; settings: PA14; 50µM of each inhibitor (method says 10 μM); vs vehicle
Method: The over-day culture was grown to OD600nm 1.5., diluted again at 1:10,000 in 5 mL LB and incubated with 10 μM of the test compound or the vehicle control for 18 hours at 37 °C and 200 rpm in an incubator shaker. After 18 h, 1 mL of culture was centrifuged for 2 min at 20.000 x g. The supernatant was transferred to a new tube, 200 μL of this were loaded in a flat-bottom 96-well plate, and the pyocyanin levels were quantified by measuring at OD690nm in the infinite F200 plate reader using the Magellan software (Tecan, Switzerland). […] The percent of pyocyanin was calculated compared to the PA14 culture grown in the absence of compounds.
To determine the IC50 of pyocyanin production, we followed the same process as above. […] Using GraphPad Prism Software, the IC50 curve was plotted against percent inhibition of pyocyanin production at each concentration using PA14 in the absence of compounds as a control.

| Compound | % Production pqsA-GFP [1] [%] | % Production 2-AA [2] [%] | % Production DHQ [2] [%] | % Production HHQ [2] [%] | % Production HQNO [2] [%] | % Production PQS [2] [%] | % Production AA [2] [%] | % Production Pyocyanin [3] [%] |
| --- | --- | --- | --- | --- | --- | --- | --- | --- |
| N#Cc1ccc(NC(=O)CCNc2ccc(F)cc2)cc1 [D34] | 80 | 113 | 100 | 97 | 96 | 97 | 101 | 91 |
| N#Cc1ccc(NC(=O)CC(=O)Nc2ccc(F)cc2)cc1 [D36] | 10 | 37 | 68 | 57 | 59 | 47 | 187 | 16 |
| N#Cc1ccc(NC(=O)C(=O)Nc2ccc(F)cc2)cc1 [D37] | 97 | 103 | 105 | 98 | 99 | 110 | 90 | 106 |
| Cc1cc(F)ccc1N1CCCC(NC(=O)c2ccc(C#N)cc2)C1 (stereo not drawn) [D38] | 90 | 101 | 84 | 98 | 100 | 96 | 54 | 108 |
| Cc1cc(F)ccc1CCNC(=O)c1ccc(C#N)cc1 [D39] | 91 | 106 | 96 | 96 | 102 | 93 | 68 | 110 |
| Cc1cc(F)ccc1NC(=O)Cc1ccc(C#N)cc1 [D40] | 96 | 113 | 85 | 102 | 109 | 100 | 81 | 115 |
| N#Cc1ccc(NC(=O)CCC(=O)Nc2ccc(F)cc2)cc1 [D47] | 78 | 100 | 100 | 95 | 93 | 94 | 42 | 99 |
| Cc1cc(F)ccc1NC(=O)CC(=O)Nc1ccc(C#N)cc1 [D48] | 44 | 77 | 91 | 96 | 94 | 90 | 59 | 60 |
| CC(=O)c1ccc(NC(=O)CC(=O)Nc2ccc(C#N)cc2)cc1 [D49] | 28 | 90 | 106 | 120 | 101 | 119 | 131 | 66 |
| N#Cc1ccc(NC(=O)CC(=O)Nc2ccc(C(=O)C(F)(F)F)cc2)cc1 [D50] | 102 | 140 | 89 | 107 | 103 | 104 | 176 | 84 |
| N#Cc1ccc(NC(=O)CC(=O)Nc2ccc([N+](=O)[O-])cc2)cc1 [D51] | 10 | 7 | 12 | 3 | 18 | 6 | 263 | 3 |
| N#Cc1ccc(NC(=O)CC(=O)Nc2ccc(N)cc2)cc1 [D52] | 90 | 101 | 103 | 92 | 92 | 86 | 115 | 87 |
| CC(=O)Nc1ccc(NC(=O)CC(=O)Nc2ccc(C#N)cc2)cc1 [D53] | 85 | 93 | 98 | 75 | 85 | 88 | 56 | 103 |
| N#Cc1ccc(NC(=O)CC(=O)Nc2ccc(NC(=O)C(F)(F)F)cc2)cc1 [D54] | 85 | 117 | 108 | 103 | 101 | 101 | 82 | 94 |
| CS(=O)(=O)Nc1ccc(NC(=O)CC(=O)Nc2ccc(C#N)cc2)cc1 [D55] | 131 | 95 | 80 | 130 | 98 | 115 | 117 | 100 |
| N#Cc1ccc(NC(=O)CC(=O)Nc2ccc(I)cc2)cc1 [D56] | 6 | 72 | 136 | 63 | 69 | 62 | 180 | 13 |

| Compound | % Production pqsA-GFP [1] [%] | % Production 2-AA [2] [%] | % Production DHQ [2] [%] | % Production HHQ [2] [%] | % Production HQNO [2] [%] | % Production PQS [2] [%] | % Production AA [2] [%] | % Production Pyocyanin [3] [%] |
| --- | --- | --- | --- | --- | --- | --- | --- | --- |
| O=C(CC(=O)Nc1ccc([N+](=O)[O-])cc1)Nc1ccc(Oc2ccccc2)cc1 [D58] | 9 | 22 | 45 | 20 | 23 | 19 | 101 | 6 |
| O=C(CC(=O)Nc1ccc(Oc2ccccc2)cc1)Nc1ccc(I)cc1 [D59] | 81 | 92 | 93 | 99 | 97 | 93 | 131 | 72 |
| O=C(CC(=O)Nc1ccc([N+](=O)[O-])cc1O)Nc1ccc(Oc2ccccc2)cc1 [D61] | 7 | 12 | 8 | 1 | 8 | 6 | 112 | 6 |
| N#Cc1ccc(NC(=O)CC(=O)Nc2ccc(Oc3ccccc3)cc2)c(N)c1 [D62] | 6 | 10 | 16 | 2 | 13 | 9 | 107 | 7 |
| N#Cc1ccc(NC(=O)CC(=O)Nc2ccc(Oc3ccccc3)cc2)c(O)c1 [D63] | 7 | 5 | 4 | 0 | 4 | 4 | 68 | 6 |
| O=C(CC(=O)Nc1ccc(Oc2ccccc2)cc1)Nc1ccc(Br)cc1 [D64] | 61 | 78 | 85 | 88 | 88 | 100 | 50 | 48 |
| O=C(CC(=O)Nc1ccc(Oc2ccccc2)cc1)Nc1ccc(Cl)cc1 [D67] | 41 | 84 | 105 | 101 | 105 | 106 | 155 | 26 |
| O=C(CC(=O)Nc1ccc(Oc2ccccc2)cc1)Nc1ccc(F)cc1 [D68] | 52 | 84 | 109 | 121 | 121 | 137 | 127 | 33 |
| N#Cc1ccc(NC(=O)CC(=O)Nc2ccc(Oc3ccccc3)cc2)c(N)c1 [D92] | 1 |  |  |  |  |  |  | 4 |
| N#Cc1ccc(NC(=O)CC(Nc2ccc(Oc3ccccc3)cc2)C(F)(F)F)cc1 (stereo not drawn) [D93] | 88 |  |  |  |  |  |  | 91 |
| CC(F)(C(=O)Nc1ccc(C#N)cc1)C(=O)Nc1ccc(C#N)cc1 [D94] | 85 |  |  |  |  |  |  | 52 |
| N#Cc1ccc(NC(=O)C(F)C(=O)Nc2ccc(C#N)cc2)cc1 [D96] | 42 |  |  |  |  |  |  | 34 |
| N#Cc1ccc(NC(=O)C(F)(F)C(=O)Nc2ccc(C#N)cc2)cc1 [D97] | 95 |  |  |  |  |  |  | 94 |
| O=C(CC(=O)Nc1ccc(C(F)(F)F)cc1)Nc1ccc(Oc2ccccc2)cc1 [D98] | 29 |  |  |  |  |  |  | 42 |
| Cc1cc(F)ccc1NCC(=O)Nc1cccc(C#N)c1 [G1] | 84 | 122 |  | 100 | 101 | 109 |  | 103 |
